From PubChem BioAssay AID330 (DTP/NCI, 2004)
“And” between values parts separate entries of the source, which are not always exact repeats. Equal entries are not always repeated. Inconclusive results and toxic doses are left out.

System: P388 leukemia ip, CD2F1 mice, survival T/C
Experiment: NCI In Vivo Anticancer Drug Screen. Data for tumor model P388 Leukemia (intraperitoneal) in CD2F1 (CDF1) mice
Settings: endpoint: median survival time, higher = longer survival
In short: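 Mice carrying the transplanted tumor received test compound or vehicle. Survival was recorded in each group, and the value is the treated-group measurement divided by that of the vehicle-treated control group.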

[1] = dose: 50.0 mg/kg/injection, schedule: Q01DX005 (ip), vehicle: saline
[2] = dose: 100.0 mg/kg/injection, schedule: Q01DX005 (ip), vehicle: saline
[3] = dose: 200.0 mg/kg/injection, schedule: Q01DX005 (ip), vehicle: saline
[4] = dose: 100.0 mg/kg/injection, schedule: Q04DX003 (ip), vehicle: saline
[5] = dose: 200.0 mg/kg/injection, schedule: Q04DX003 (ip), vehicle: saline
[6] = dose: 400.0 mg/kg/injection, schedule: Q04DX003 (ip), vehicle: saline
[7] = dose: 50.0 mg/kg/injection, schedule: Q01DX009 (ip), vehicle: saline
[8] = dose: 100.0 mg/kg/injection, schedule: Q01DX009 (ip), vehicle: saline
[9] = dose: 200.0 mg/kg/injection, schedule: Q01DX009 (ip), vehicle: saline
[10] = dose: 0.05 mg/kg/injection, schedule: Q01DX010 (ip), vehicle: saline
[11] = dose: 50.0 mg/kg/injection, schedule: Q01DX005 (ip), vehicle: Klucel (hydroxypropylcellulose) (HPC)
[12] = dose: 100.0 mg/kg/injection, schedule: Q01DX005 (ip), vehicle: Klucel (hydroxypropylcellulose) (HPC)
[13] = dose: 200.0 mg/kg/injection, schedule: Q01DX005 (ip), vehicle: Klucel (hydroxypropylcellulose) (HPC)
[14] = dose: 100.0 mg/kg/injection, schedule: Q01DX009 (ip), vehicle: saline with Tween-80
[15] = dose: 50.0 mg/kg/injection, schedule: Q01DX005 (ip), vehicle: saline with Tween-80
[16] = dose: 100.0 mg/kg/injection, schedule: Q01DX005 (ip), vehicle: saline with Tween-80
[17] = dose: 200.0 mg/kg/injection, schedule: Q01DX005 (ip), vehicle: saline with Tween-80

O=C(CCl)NCC1OC(n2cnc3c(=O)[nH]cnc32)C(O)C1O (stereo not given)
T/C [1]: 98 % of control
T/C [2]: 96 % of control
T/C [3]: 100 % of control

C=CCN(NC(=O)c1ccccc1)C(=O)c1ccccc1
T/C [4]: 105 % of control
T/C [5]: 100 % of control
T/C [6]: 110 % of control

O=C1CCC2=C3C4CCCC5OC6CC(=O)CCC6=C(C6CCCC(OC2C1)C36)C54 (stereo not given)
T/C [7]: 96 % of control
T/C [8]: 100 % of control
T/C [9]: 96 % of control
T/C (dose: 400.0 mg/kg/injection, schedule: Q01DX009 (ip), vehicle: saline): 100 % of control

CC1=C2C(=C[C@@](C)(CO)[C@@H]2O)C(=O)[C@](C)(O)C12CC2
T/C [10]: 109 % of control
T/C (dose: 0.1 mg/kg/injection, schedule: Q01DX010 (ip), vehicle: saline): 118 % of control
T/C (dose: 0.8 mg/kg/injection, schedule: Q01DX010 (ip), vehicle: saline): 95 % of control

CCN(CC)CC1(C)NN=C2C(n3cccc3)=CC=CN21 (stereo not given)
T/C (dose: 60.0 mg/kg/injection, schedule: Q01DX005 (ip), vehicle: saline): 104 % of control
T/C (dose: 120.0 mg/kg/injection, schedule: Q01DX005 (ip), vehicle: saline): 100 % of control

C/C(C=O)=C\c1ccc2c(c1)OCO2
T/C [11]: 104 % of control
T/C [12]: 97 % of control
T/C [13]: 106 % of control

COC(C(=O)C(O)C(C)O)C1Cc2cc3cc(OC4CC(OC(C)=O)C(OC5CC(O)C(OC)C(C)O5)C(C)O4)cc(O)c3c(O)c2C(=O)C1OC1CC(OC2CC(OC3CC(C)(O)C(OC(=O)C(C)C)C(C)O3)C(O)C(C)O2)C(O)C(C)O1 (stereo not given)
T/C (dose: 0.02 mg/kg/injection, schedule: Q01DX010 (ip), vehicle: saline): 100 % of control
T/C [10]: 100 % of control
T/C (dose: 0.2 mg/kg/injection, schedule: Q01DX009 (ip), vehicle: saline): 183 % of control
T/C (dose: 0.4 mg/kg/injection, schedule: Q01DX009 (ip), vehicle: saline): 122 % of control
T/C (dose: 3.2 mg/kg/injection, schedule: Q01DX010 (ip), vehicle: saline): 90 % of control

O=C(Oc1ccccc1)C1CC2(C1)CC(C(=O)Oc1ccccc1)C2 (stereo not given)
T/C (dose: 100.0 mg/kg/injection, schedule: Q04DX002 (ip), vehicle: saline with Tween-80): 101 % of control
T/C (dose: 200.0 mg/kg/injection, schedule: Q04DX002 (ip), vehicle: saline with Tween-80): 99 % of control
T/C (dose: 400.0 mg/kg/injection, schedule: Q04DX002 (ip), vehicle: saline with Tween-80): 99 % of control

O=C(C(Br)C(Br)c1ccccc1)N1CCOCC1 (stereo not given)
T/C [14]: 118 % of control
T/C (dose: 178.0 mg/kg/injection, schedule: Q01DX009 (ip), vehicle: saline with Tween-80): 113 % of control
T/C (dose: 266.0 mg/kg/injection, schedule: Q01DX009 (ip), vehicle: saline with Tween-80): 119 % of control
T/C (dose: 400.0 mg/kg/injection, schedule: Q01DX009 (ip), vehicle: saline with Tween-80): 121 % of control

Cc1c(-c2ccccc2)nn(CC(=O)O)c(=O)c1C#N
T/C (dose: 37.5 mg/kg/injection, schedule: Q04DX002 (ip), vehicle: alkali diluted with water): 106 % of control
T/C (dose: 75.0 mg/kg/injection, schedule: Q04DX002 (ip), vehicle: alkali diluted with water): 104 % of control
T/C (dose: 150.0 mg/kg/injection, schedule: Q04DX002 (ip), vehicle: alkali diluted with water): 106 % of control
T/C (dose: 300.0 mg/kg/injection, schedule: Q04DX002 (ip), vehicle: alkali diluted with water): 103 % of control

COc1ccccc1Cc1c(OC)cc(OC)c(C(=O)CCc2ccccc2)c1O
T/C (dose: 3.2 mg/kg/injection, schedule: Q01DX009 (ip), vehicle: other): 100 % of control
T/C (dose: 4.3 mg/kg/injection, schedule: Q01DX009 (ip), vehicle: other): 110 % of control
T/C (dose: 6.4 mg/kg/injection, schedule: Q01DX009 (ip), vehicle: other): 100 % of control and 105 % of control
T/C (dose: 9.6 mg/kg/injection, schedule: Q01DX009 (ip), vehicle: other): 114 % of control and 97 % of control
T/C (dose: 14.0 mg/kg/injection, schedule: Q01DX009 (ip), vehicle: other): 89 % of control
T/C (dose: 28.0 mg/kg/injection, schedule: Q01DX009 (ip), vehicle: other): 91 % of control

COc1cc2c(cc1C(C)c1ccc(Cl)cc1)OCO2 (stereo not given)
T/C [15]: 99 % of control
T/C [16]: 108 % of control
T/C [17]: 101 % of control

CC(=NCc1ccccc1)NOCc1ccccc1
T/C [1]: 114 % of control
T/C [2]: 108 % of control
T/C [3]: 101 % of control

COc1cc(Br)c(C2=C3c4cc(OC)c(OC)cc4CCN3C(=O)C2=O)cc1OC
T/C [11]: 99 % of control
T/C [12]: 93 % of control
T/C [13]: 90 % of control

CC1CCC(C(=O)C2CCCCC2CC2CCCCC2)CC1 (stereo not given)
T/C [15]: 105 % of control
T/C [16]: 102 % of control
T/C [17]: 96 % of control

COc1ccc(C(C#N)N2CCCC2)cc1 (stereo not given)
T/C (dose: 6.25 mg/kg/injection, schedule: Q04DX003 (ip), vehicle: other): 100 % of control
T/C (dose: 12.5 mg/kg/injection, schedule: Q04DX003 (ip), vehicle: other): 100 % of control

CCCN(CCC)/N=C/c1c2c(O)c3c(O)c(C)c4c(c3c1O)C(=O)C(C)(O/C=C/C(OC)C(C)C(OC(C)=O)C(C)C(O)C(C)C(O)C(C)/C=C/C=C(C)C(=O)N2)O4 (stereo not given)
T/C (dose: 60.0 mg/kg/injection, schedule: Q01DX005 (ip), vehicle: Klucel (hydroxypropylcellulose) (HPC)): 110 % of control
T/C (dose: 120.0 mg/kg/injection, schedule: Q01DX005 (ip), vehicle: Klucel (hydroxypropylcellulose) (HPC)): 122 % of control

COc1ccc2c(c1[N+](=O)[O-])CC[C@@H]1[C@@H]2CC[C@]2(C)C(=O)CC[C@@H]12
T/C (dose: 25.0 mg/kg/injection, schedule: Q01DX005 (ip), vehicle: saline with Tween-80): 103 % of control
T/C [15]: 105 % of control
T/C [16]: 99 % of control
T/C [17]: 86 % of control

CCc1ccc[n+](-c2nc3c([O-])n(C)c(=O)n(C)c-3n2)c1
T/C [4]: 91 % of control
T/C [5]: 100 % of control
T/C [6]: 94 % of control

COc1cc2c(OC)cc1CCCC(=O)CCCc1cc(OC)c(cc1OC)CCCC(=O)CCC2
T/C [15]: 100 % of control
T/C [16]: 98 % of control
T/C [17]: 92 % of control

CN(C)c1cc2nc3ccccc3nc2cc1O
T/C [7]: 95 % of control
T/C [8]: 92 % of control
T/C [9]: 100 % of control

C(C#CCN1CCOCC1)#CCN1CCOCC1
T/C (dose: 50.0 mg/kg/injection, schedule: Q01DX009 (ip), vehicle: Klucel (hydroxypropylcellulose) (HPC)): 109 % of control and 89 % of control
T/C (dose: 100.0 mg/kg/injection, schedule: Q01DX009 (ip), vehicle: Klucel (hydroxypropylcellulose) (HPC)): 101 % of control and 89 % of control
T/C (dose: 200.0 mg/kg/injection, schedule: Q01DX009 (ip), vehicle: Klucel (hydroxypropylcellulose) (HPC)): 101 % of control and 93 % of control
T/C (dose: 400.0 mg/kg/injection, schedule: Q01DX009 (ip), vehicle: Klucel (hydroxypropylcellulose) (HPC)): 98 % of control

O=c1[nH]nc(SCc2ccc(Cl)cc2)c(=O)[nH]1
T/C (dose: 25.0 mg/kg/injection, schedule: Q01DX005 (ip), vehicle: Klucel (hydroxypropylcellulose) (HPC)): 92 % of control
T/C [11]: 91 % of control
T/C [12]: 90 % of control
T/C [13]: 87 % of control

CCn1c2ccccc2c2ccc(N=Cc3cccc4ccccc34)cc21
T/C (dose: 100.0 mg/kg/injection, schedule: Q04DX003 (ip), vehicle: saline + alcohol): 105 % of control
T/C (dose: 200.0 mg/kg/injection, schedule: Q04DX003 (ip), vehicle: saline + alcohol): 97 % of control
T/C (dose: 400.0 mg/kg/injection, schedule: Q04DX003 (ip), vehicle: saline + alcohol): 105 % of control

CCCCCCCCCCCCCCCCCCCC[N+]1([O-])CCOCC1
T/C (dose: 3.12 mg/kg/injection, schedule: Q01DX009 (ip), vehicle: saline): 101 % of control
T/C (dose: 6.25 mg/kg/injection, schedule: Q01DX009 (ip), vehicle: saline): 87 % of control
T/C (dose: 12.5 mg/kg/injection, schedule: Q01DX009 (ip), vehicle: saline): 87 % of control and 94 % of control
T/C (dose: 25.0 mg/kg/injection, schedule: Q01DX009 (ip), vehicle: saline): 94 % of control
T/C [7]: 90 % of control and 92 % of control

O=C(O)c1c(Cl)c(Cl)c(Cl)c(Cl)c1-c1c2cc(Br)c(=O)c(Br)c-2oc2c(Br)c(O)c(Br)cc12
T/C [15]: 89 % of control
T/C [16]: 90 % of control

NC(=O)NC(c1ccccc1)C(O)(c1ccccc1)c1ccccc1 (stereo not given)
T/C (dose: 50.0 mg/kg/injection, schedule: Q01DX009 (ip), vehicle: saline with Tween-80): 87 % of control
T/C [14]: 93 % of control
T/C (dose: 200.0 mg/kg/injection, schedule: Q01DX009 (ip), vehicle: saline with Tween-80): 96 % of control
